Results: PubChem BioAssay (NCI)
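Test compounds were applied to cells in 96-well plates for 48 hours at 5 doses. GI50 is the concentration that inhibits growth by half. At the TGI there is no net growth.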

Tests used:
Experiment in all cases: DTP human tumour cell line panel, 48 h
[1] = system: CAKI-1 renal
[2] = system: HL-60(TB) leukemia
[3] = system: HOP-62 NSCLC
[4] = system: HT29 colon
[5] = system: KM12 colon
[6] = system: OVCAR-8 ovarian
[7] = system: SK-MEL-5 melanoma
[8] = system: SK-OV-3 ovarian
[9] = system: SNB-75 CNS
[10] = system: U251 CNS

Compound `C[C@@H]1CN(CC(=O)N2CC(C)(C)c3nc(CO)c(Cc4ccc(F)cc4)cc32)[C@@H](CN2CCOC[C@H]2C)CN1` has a GI50 [1] of over 100 µM, a TGI [1] of over 100 µM and a GI50 [2] of 26.6 µM. It also gave a TGI [2] of 76.2 µM, a GI50 [3] of over 100 µM and a TGI [3] of over 100 µM. For the same compound, the GI50 [4] was 22.2 µM, the TGI [4] was 49.2 µM and the GI50 [5] was 46.2 µM. For the same compound, the TGI [5] was over 100 µM, the GI50 [6] was 32.1 µM and the TGI [6] was over 100 µM. For the same compound, the GI50 [7] was 15 µM, the TGI [7] was 28.3 µM and the GI50 [8] was 0.0235 µM. It also gave a TGI [8] of 0.088 µM, a GI50 [9] of 19.7 µM and a TGI [9] of over 100 µM. For the same compound, the GI50 [10] was 68.5 µM and the TGI [10] was over 100 µM.

Work on `CC1=C(O)C(=O)C2C(=O)C1C(C)C2c1ccc(Cl)cc1` (stereo not given) yielded a TGI [1] of over 100 µM, a TGI [2] of over 100 µM and a TGI [3] of over 100 µM. The TGI [4] was over 100 µM, the TGI [5] was over 100 µM and the TGI [6] was over 100 µM. It also gave a TGI [7] of over 100 µM, a TGI [8] of over 100 µM and a TGI [9] of over 100 µM. For the same compound, the TGI [10] was over 100 µM.

In the case of `Fc1cccc(COc2ccc(Nc3ncnc4cc(-c5ccc[nH]5)sc34)cc2Cl)c1`, the GI50 [1] is reported as 0.681 µM, the TGI [1] is reported as 6.89 µM and the GI50 [2] is reported as 0.354 µM. It also gave a TGI [2] of 3.22 µM, a GI50 [3] of 3.01 µM and a TGI [3] of 8.52 µM. It also gave a GI50 [4] of 7.47 µM, a TGI [4] of over 20.6 µM and a GI50 [5] of 0.156 µM. The TGI [5] was 5.54 µM, the GI50 [6] was 3.38 µM and the TGI [6] was over 25 µM. The GI50 [7] was 6.01 µM, the TGI [7] was over 25 µM and the GI50 [8] was 2.41 µM. For the same compound, the TGI [8] was 20.1 µM, the GI50 [9] was 1.19 µM and the TGI [9] was 6.35 µM. It also gave a GI50 [10] of 3.51 µM and a TGI [10] of 17.5 µM.

In the case of `CCCCCCCCCCCCCCCC(=O)OCC1OC(n2c(O)c(N=NC(N)=S)c3ccc([N+](=O)[O-])cc32)C(OC(C)=O)C1OC(C)=O` (stereo not given), the TGI [1] is reported as over 100 µM, the TGI [2] is reported as over 100 µM and the TGI [3] is reported as over 100 µM. It also gave a TGI [4] of over 100 µM, a TGI [5] of over 100 µM and a TGI [6] of over 100 µM. For the same compound, the TGI [7] was over 100 µM, the TGI [8] was over 100 µM and the TGI [9] was over 100 µM. For the same compound, the TGI [10] was over 100 µM.

In the case of `CCCCCCCCCc1cc(=O)c2ccc(O)cc2o1`, the TGI [1] is reported as 81.8 µM, the TGI [2] is reported as 38.2 µM and the TGI [3] is reported as over 100 µM. The TGI [4] was over 100 µM, the TGI [5] was over 100 µM and the TGI [6] was over 100 µM. It also gave a TGI [7] of over 100 µM, a TGI [8] of over 100 µM and a TGI [9] of 56.4 µM. It also gave a TGI [10] of over 100 µM.

`COc1ccc(-c2cn(-c3ccccc3)c(-c3ccccc3)n2)cc1OC` gave a GI50 [1] of 11.2 µM, a TGI [1] of 27 µM and a GI50 [2] of 2.34 µM. The TGI [2] was 6.7 µM, the GI50 [3] was 4.44 µM and the TGI [3] was 17.9 µM. The GI50 [4] was 4.5 µM, the TGI [4] was over 100 µM and the GI50 [5] was 2.4 µM. For the same compound, the TGI [5] was 6.41 µM, the GI50 [6] was 3.01 µM and the TGI [6] was 10.8 µM. For the same compound, the GI50 [7] was 8.03 µM, the TGI [7] was 20.7 µM and the GI50 [8] was 7.44 µM. For the same compound, the TGI [8] was 20.9 µM, the GI50 [9] was 13.6 µM and the TGI [9] was 28.5 µM. The GI50 [10] was 2.46 µM and the TGI [10] was 10.6 µM.
